Source: patent US8389679B2, “Targeted antimicrobial moieties” (priority 2009, dated 2013)
Entries after “also recorded” stand apart in the source; their conditions may differ.

System: target microorganisms
Test: Screen of synthesized peptides for binding to target microorganisms (targeting peptides, Tables 2 and 3)
Conditions: microorganism(s) the targeting peptide was identified as binding to (Table 3)
Experimental: Once noted, these peptides were batch synthesized on a multiplex peptide synthesizer, yielding 5-10 mg of each peptide that could readily be screened for biological activity (e.g., binding activity and/or antimicrobial activity.
Other suitable targeting peptides include the peptides that have been identified as binding to particular target organisms as shown in Table 3 and/or Table 4.

Row | Substance | Target(s)
1 | 1T-16 (IDMR; synthetic novel tartgeting peptide IT-16) | P. aeruginosa
2 | 1T-163 (MENILIYIPMVLSPFGSGILLFLGKDRRYML; synthetic novel tartgeting peptide IT-163) | A. naeslundii, F. nucleatum,; also recorded: P. gingivalis; also recorded: S. epidermidis,; also recorded: S. gordonii, S. mitis, S. mutans,; also recorded: S. oralis, S. salivarious,; also recorded: S. sanguinis
3 | 1T-168 (ELHRIMSTEKIGAVTKMNFDTAPIMSILPIDIYPKEVGIGS; synthetic novel tartgeting peptide IT-168) | A. naeslundii, F. nucleatum,; also recorded: P. gingivalis; also recorded: S. epidermidis,; also recorded: S. gordonii, S. mitis, S. mutans,; also recorded: S. oralis, S. salivarious,; also recorded: S. sanguinis
4 | 1T-158 (WENKPSPLGSIKKLQGLVYRLIGYRHFWV; synthetic novel tartgeting peptide IT-158) | A. naeslundii, F. nucleatum,; also recorded: P. gingivalis; also recorded: S. epidermidis,; also recorded: S. gordonii, S. mitis, S. mutans,; also recorded: S. oralis, S. salivarious,; also recorded: S. sanguinis
5 | 1T-140 (IKGTIAFVGEDYVEIRVDKGVKLTFRKSAIANVINNNQQ; synthetic novel tartgeting peptide IT-140) | A. naeslundii, F. nucleatum,; also recorded: P. gingivalis; also recorded: S. epidermidis,; also recorded: S. gordonii, S. mitis, S. mutans,; also recorded: S. oralis, S. salivarious,; also recorded: S. sanguinis
6 | 1T-97 (GVAERNLDRITVAVAIIWTITIVGLGLVAKLG; synthetic novel tartgeting peptide IT-97) | A. naeslundii, F. nucleatum,; also recorded: P. gingivalis; also recorded: S. epidermidis,; also recorded: S. gordonii, S. mitis, S. mutans,; also recorded: S. oralis, S. salivarious,; also recorded: S. sanguinis
7 | 1T-129 (YDKYIKYLSIQPPFIVYFI; synthetic novel tartgeting peptide IT-129) | A. naeslundii, P. gingivalis; also recorded: S. epidermidis,; also recorded: S. gordonii, S. mitis, S. mutans,; also recorded: S. oralis, S. salivarious,; also recorded: S. sanguinis
8 | 1T-23 (PALVDLSNKEAVWAVLDDHS; synthetic novel tartgeting peptide IT-23) | S. mutans; also recorded: P. aeruginosa
9 | 1T-62 (GCKGCAQRDPCAEPEPYFRLR; synthetic novel tartgeting peptide IT-62) | S. epidermidis; also recorded: P. aeruginosa
10 | 1T-156 (GRFQISIRGEEKSKVKVQGKGTFTDRNTT; synthetic novel tartgeting peptide IT-156) | A. naeslundii, F. nucleatum,; also recorded: P. gingivalis,; also recorded: T. denticolaS. gordonii,; also recorded: S. mitis, S. mutans, S. oralis,; also recorded: S. salivarious, S. sanguinis
11 | 1T-68 (GGTKEIVYQRG; synthetic novel tartgeting peptide IT-68) | S. mutans; also recorded: S. aureus; also recorded: C. jeikeium; also recorded: C. xerosis; also recorded: C. striatum; also recorded: P. aeruginosa
12 | 1T-51 (GKPKRMPAEFIDGYGQALLAGA; synthetic novel tartgeting peptide IT-51) | S. aureus; also recorded: P. aeruginosa
13 | 1T-164 (KKSHSQGKRKLKDLNSAYKIDNQLHYALR; synthetic novel tartgeting peptide IT-164) | A. naeslundii, F. nucleatum,; also recorded: P. gingivalis; also recorded: S. epidermidis,; also recorded: S. gordonii, S. mitis, S. mutans,; also recorded: S. oralis, S. salivarious,; also recorded: S. sanguinis
14 | 1T-43 (DRCLSVLSWSPPKVSPLI; synthetic novel tartgeting peptide IT-43) | C. jeikium; also recorded: P. aeruginosa
15 | 1T-41 (KRGSKIVIAIAVVLIVLAGVWVW; synthetic novel tartgeting peptide IT-41) | S. mutans; also recorded: S. aureus; also recorded: S. epidermidis; also recorded: C. jeikeium; also recorded: C. striatum; also recorded: P. aeruginosa
16 | 1T-161 (NKVLQVEVMWDGSVVGRPAGVISIKSSKKG; synthetic novel tartgeting peptide IT-161) | A. naeslundii, F. nucleatum,; also recorded: P. gingivalis; also recorded: S. epidermidis,; also recorded: S. gordonii, S. mitis, S. mutans,; also recorded: S. oralis, S. salivarious,; also recorded: S. sanguinis
17 | 1T-159 (IFSLHHFALICSEMGTFAVSKRAKYKWEVL; synthetic novel tartgeting peptide IT-159) | P. gingivalis
18 | 1T-9 (WAWAESPRCVSTRSNIHALAFRVEVAALT; synthetic novel tartgeting peptide IT-9) | M. xanthus
19 | 1T-127 (YDPVPKRKNKNSEGKREE; synthetic novel tartgeting peptide IT-127) | A. naeslundii, F. nucleatum,; also recorded: P. gingivalis,; also recorded: T. denticolaS. gordonii,; also recorded: S. mitis, S. mutans, S. oralis,; also recorded: S. salivarious, S. sanguinis
20 | 1T-5 (LGPIAGAAIGWDLGAISGAGLGWANFCQ; synthetic novel tartgeting peptide IT-5) | S. mutans; also recorded: S. sanguinis
21 | 1T-119 (SPATQKAPTRAQPSRAPVQDCGDGRPTAAPDDVERLSPR; synthetic novel tartgeting peptide IT-119) | S. gordonii, S. mitis, S. mutans,; also recorded: S. oralis
22 | 1T-69 (ILSQEADRKKLF; synthetic novel tartgeting peptide IT-69) | S. mutans; also recorded: P. aeruginosa
23 | 1T-4 (LDAYGELVGGN; synthetic novel tartgeting peptide IT-4) | S. mutans; also recorded: S. gordonii; also recorded: S. sanguinis; also recorded: S. oralis; also recorded: V. atypica; also recorded: L. casei
24 | 1T-91 (TSVRPGAAGAAVPAGAAGAAGAGWRWP; synthetic novel tartgeting peptide IT-91) | S. mitis, S. mutans, S. oralis,; also recorded: S. sanguinis
25 | 1T-144 (IIELHPKSWTQDWRCSFL; synthetic novel tartgeting peptide IT-144) | A. naeslundii, F. nucleatum,; also recorded: P. gingivalis,; also recorded: T. denticolaS. gordonii,; also recorded: S. mitis, S. mutans, S. oralis,; also recorded: S. salivarious, S. sanguinis
26 | 1T-95 (GHLLRVGGRVGGVGGVAGACAQPFGGQ; synthetic novel tartgeting peptide IT-95) | S. gordonii, S. mitis, S. mutans,; also recorded: S. oralis, S. sanguinis
27 | 1T-135 (FESLLPQATKKIVNNKGSKINKIF; synthetic novel tartgeting peptide IT-135) | A. naeslundii, P. gingivalis; also recorded: S. epidermidis,; also recorded: S. gordonii, S. mitis, S. mutans,; also recorded: S. oralis, S. salivarious,; also recorded: S. sanguinis
28 | 1T-143 (MPKRHYYKLEAKALQFGLPFAYSPIQLLK; synthetic novel tartgeting peptide IT-143) | A. naeslundii, F. nucleatum,; also recorded: P. gingivalis; also recorded: S. epidermidis,; also recorded: S. gordonii, S. mitis, S. mutans,; also recorded: S. oralis, S. salivarious,; also recorded: S. sanguinis
29 | 1T-113 (HGAHQRTGQRLHHHRGRTVSGCRQNPVAGVDPDEHR; synthetic novel tartgeting peptide IT-113) | S. mitis
